Marks after values point to notes of the source that are not given here.
Experiments:
[1] = tested on: Erysiphe graminis f. sp. tritici; test: Test L: wheat powdery mildew, preventive spray on wheat seedlings
[2] = tested on: Colletotrichum orbiculare; test: Test B: cucumber Colletotrichum anthracnose, preventive spray on cucumber seedlings; conditions: 200 ppm
[3] = tested on: Septoria nodorum; test: Test H: wheat glum blotch, preventive spray on wheat seedlings
Protocol: (the causal agent of wheat glum blotch) and incubated in a saturated atmosphere at 20° C. for 48 h, and then moved to a growth chamber at 22° C. for 5 days, after which disease ratings were made.

[4] = tested on: Puccinia recondita f. sp. tritici; test: Test K: wheat leaf rust, preventive spray on wheat seedlings
[5] = tested on: Sclerotinia sclerotiorum; test: Test C: cucumber white mold, preventive spray on cucumber seedlings; conditions: 200 ppm
[6] = tested on: Botrytis cinerea; test: Test E: tomato botrytis, preventive spray on tomato seedlings
[7] = tested on: Plasmopara viticola; test: Test D: grape downy mildew, spray after inoculation of grape seedlings; assay type: in vivo; conditions: 200 ppm
Source text: Upon removal, disease ratings were made. […] A dash (-) indicates no test results.

[8] = tested on: fusarium graminearium; test: Test I: wheat head scab, preventive spray on wheat seedlings; conditions: 200 ppm
Protocol: (the causal agent of wheat head scab) and incubated in a saturated atmosphere at 20° C. for 72 h, and then moved to a growth chamber at 22° C. for 5 days, after which disease ratings were made.

[9] = tested on: Rhizoctonia oryzae; test: Test G: turf brown patch, preventive spray on creeping bent grass seedlings
Protocol: (the causal agent of turf brown patch) and incubated in a saturated atmosphere at 27° C. for 24 h, and then moved to a growth chamber at 27° C. for 5 days, after which disease ratings were made.

[10] = tested on: Pythium aphanidermatum; test: Test A: bluegrass pythium blight, preventive spray on bluegrass seedlings; conditions: 200 ppm
[11] = tested on: Phytophthora infestans; test: whole plant or invertebrate; assay type: in vivo; conditions: 200 ppm
[12] = tested on: Septoria tritici; test: Test J: wheat leaf blotch, preventive spray on wheat seedlings; assay type: in vivo
Source text: A dash (-) indicates no test results.

Row | Compound | Test L disease control rating ([1]; 200 ppm) | Test B disease control rating [2] | Test H disease control rating ([3]; 200 ppm) | Test K disease control rating ([4]; 200 ppm) | Test C disease control rating [5] | Test E disease control rating ([6]; 200 ppm) | Test D disease control rating [7] | Test I disease control rating [8] | Test G disease control rating ([9]; 200 ppm) | Test A disease control rating [10] | Test F disease control rating [11] | Test L disease control rating ([1]; 40 ppm (*)) | Test J disease control rating ([12]; 40 ppm (*)) | Test H disease control rating ([3]; 40 ppm (*)) | Test K disease control rating ([4]; 40 ppm (*)) | Test E disease control rating ([6]; 40 ppm (*)) | Test G disease control rating ([9]; 40 ppm (*)) | Test J disease control rating ([12]; 200 ppm)
1 | CC(C)Cn1c(-c2ccc(F)cc2Cl)c(Cl)nc(-n2cncn2)c1=O [compound 51] | 63% | 98% | 100% | 100% | 99% | 100% | 0% | 94% | 31% | 0% | 0% |  |  |  |  |  |  | 
2 | CC(C)Cn1c(-c2cccc(F)c2F)c(Cl)nc(-n2cncn2)c1=O [compound 52] | 21% | 0% | 98% | 74% | 90% | 98% | 0% | 0% | 16% | 0% | 0% |  |  |  |  |  |  | 
3 | CC(C)Cn1c(-c2cc(F)ccc2F)c(Cl)nc(-n2cncn2)c1=O [compound 54] | 0% | 0% | 90% | 98% | 92% | 100% | 0% | 0% | 84% | 0% | 0% |  |  |  |  |  |  | 
4 | CC(C)Cn1c(-c2c(F)ccc(F)c2F)c(Cl)nc(-n2cncn2)c1=O [compound 55] | 0% | 0% | 95% | 99% | 85% | 100% | 0% | 78% | 96% | 0% | 0% |  |  |  |  |  |  | 
5 | CCC(C)Cn1c(-c2c(F)cccc2F)c(Cl)nc(-n2ccnc2C)c1=O (centres unmarked) [compound 69] |  |  |  |  | 0% |  | 0% | 0% |  | 0% | 0% | 0* % | 62* % | 0* % | 61* % | 0* % | 0* % | 
6 | CC(C)Cn1c(-c2c(F)cccc2F)c(Cl)nc(-c2cncn2C)c1=O [compound 83] | 0% | 9% | 0% | 79% | 64% | 0% | 0% | 0% |  | 0% | 47% |  |  |  |  |  |  | 18%
7 | CC(C)Cn1c(-c2ccc3ccccc3c2)c(Cl)nc(-n2cccn2)c1=O [compound 90] | 0% | 0% | 0% | 0% | 63% | 0% | 16% | 0% |  | 0% | 0% |  |  |  |  |  |  | 0%

Reference: US20080194585A1, “Fungicidal Pyrazine Derivatives” (priority 2005, published 2008)
